Publication PMC8080589, “Modulation of αVβ6 integrin in osteoarthritis-related synovitis and the interaction with VTN(381–397 a.a.) competing for TGF-β1 activation” (Experimental & Molecular Medicine, 2021)
Ends that are not written are not given here.

Experiments:
[1] = test system: αV integrin subunit expression, human fibroblast-like synoviocytes (FLSs); assay: αV subunit expression in FLSs by western blot after stimulation; format: cell-based; conditions: OA FLSs, western blot normalized to GAPDH; IL-1β, IL-6, TNF-α 10 ng/mL 3 or 7 days; prednisolone, dexamethasone 1 μM 3 or 7 days; HMGB1 10, 50, 100 ng/mL 3 days; S100A9, S100A12 100, 200 ng/mL 3 days or 24 h; AGE-BSA 50, 100, 200 μg/mL 3 days or 24 h; menadione 25–50–100 μM 3 h; H2O2 100–200–400 μM 2 h
Experimental: (§1) Synovial membranes were obtained from 22 OA patients (14 females, 8 males; mean age 69.8 ± 9.6 years, BMI 30.9 ± 6.8) during knee replacement, and primary synovial fibroblasts were isolated as explained previously. The research ethics committee of CHU de Liege (Belgium) approved the study, and the patient gave informed consent to allow research procedures on samples. Human fibroblast-like synoviocytes (FLSs) were then cultured in DMEM supplemented with 10% FBS, 1% Pen/Strep, and 1% L-glutamine (all from Lonza; Basel, Switzerland) at 37 °C in an atmosphere of 5% CO2. In a plate, 5 × 10^4 FLSs were stimulated with different compounds to analyze the modulation of αVβ6: (i) TGF-β1, TNF-α, IL-1β, or IL-6 were used for 3 or 7 days at a concentration of 10 ng/mL; (ii) among the danger-associated molecular patterns, high-mobility group box 1 (HMGB1) was tested at 10, 50, and 100 ng/mL for 3 days, while S100A9 and S100A12 were tested at 100 and 200 ng/mL for 3 days or 24 h; (iii) advanced glycation end product (AGE-BSA) was tested at 50, 100, and 200 μg/mL for 3 days or 24 h; (iv) prednisolone and dexamethasone were used at 1 μM for 3 or 7 days; and (v) menadione or H2O2 was used to induce oxidative stress at 25–50–100 μM (3 h) and 100–200–400 μM (2 h), respectively, without FBS in the medium.
(§2) The expression of αV and β6 subunits and α-SMA in FLSs was evaluated by western blot analysis. Cells were scraped from plates and lysed with lysis buffer (25 mM HEPES, 150 mM NaCl, 0.5% Triton, 10% glycerol, 1 mM dithiothreitol) containing phosphatase inhibitors (25 mM β-glycerophosphate, 1 mM Na3VO4, and 1 mM NaF) and complete protease inhibitor mixture (Roche Applied Science; Penzberg, Germany). Total proteins were separated by 10% SDS–PAGE gels (12% for α-SMA) and transferred onto PVDF membranes. The membranes were then incubated with anti-αV polyclonal antibody (1:250 dilution) (Cell Signaling Technology; Boston, MA, USA), anti-β6 polyclonal antibody (1:1000 dilution) (Abcam; Cambridge, UK) or anti-α-SMA monoclonal antibody (Agilent; Santa Clara, CA, USA; 1:1000 dilution). HRP-conjugated anti-rabbit antibody (1:1000 dilution) (Cell Signaling Technology) was used as the secondary antibody. Immunoblots were developed using the ECL chemiluminescent detection system. Rabbit anti-glyceraldehyde 3-phosphate dehydrogenase (GAPDH) (Merck) or rabbit anti-heat shock protein 90 (Hsp90; Santa Cruz) was used as loading controls at a dilution of 1:10,000 or 1:200, respectively. Values of optical intensity were normalized to GAPDH or Hsp90 levels. Data were analyzed by paired Wilcoxon test; a p-value < 0.05 was considered statistically significant. Statistical analysis was performed with GraphPad Prism 6 software (San Diego, CA, USA).
Supplementary information SI3.
Variation of αV and β6 expression in human fibroblast-like synoviocytes after stimulation with different compounds. Time of stimulation and employed substances are indicated. The graphs represent αV and β6 expression before and after stimulation, obtained by western blot. Values were normalized to GAPDH and analysed by paired Wilcoxon test.
IL-1β 10 ng/mL 3 days IL-6 10 ng/mL 3 daysIL-6 Prednisolone 1µM 3 daysPrednisolone […]
Dexamethasone 1µM 3 days TNF-α 10 ng/mL 3 days TGF-β 10 ng/mL 3 days
(1 picture or pasted object on this page, not shown here)
0.0 control IL-6 0.0 control PRE […]

[2] = test system: β6 integrin subunit expression, human fibroblast-like synoviocytes (FLSs); assay: β6 subunit expression in FLSs by western blot after stimulation; format: cell-based; conditions: OA FLSs, western blot normalized to GAPDH; IL-1β, IL-6, TNF-α 10 ng/mL 3 or 7 days; prednisolone, dexamethasone 1 μM 3 or 7 days; HMGB1 10, 50, 100 ng/mL 3 days; S100A9, S100A12 100, 200 ng/mL 3 days or 24 h; AGE-BSA 50, 100, 200 μg/mL 3 days or 24 h; menadione 25–50–100 μM 3 h; H2O2 100–200–400 μM 2 h
Experimental: as §1, §2
IL-1β 10 ng/mL 3 days IL-6 10 ng/mL 3 daysIL-6 Prednisolone 1µM 3 daysPrednisolone
0.0 control IL-6 0.0 control PRE
Dexamethasone 1µM 3 daysDexamethasone TNF-α 10 ng/mL 3 days AGE 50 µg/mL 24 h

integrin αVβ6 = biological target: T1, integrin αVβ6 (Homo sapiens, UniProt P06756+P18564); assay: Competition study, 125ISIB-echistatin vs ligands on coated αVβ6; format: binding; conditions: competition with 20 nM 125ISIB-echistatin, recombinant human αVβ6 coated at 1.8 µg/mL, IBB pH 7.4 / 0.5% BSA, 2 h room temperature, duplicate wells, gamma counter, five-parameter logistic
T1 construct: purchased R&D System; Minneapolis, MN, USA
Experimental: (§3) A competition study was performed to investigate the interaction of VTN(381–397 a.a.) with five different integrins. Radiolabeled echistatin, a disintegrin known to bind integrin receptors, was used as a tracer for the binding assays. Lyophilized echistatin was provided by Bachem (Bubendorf, Switzerland) and radiolabeled by conjugation with a radioiodinated benzoate (^125ISIB) to the epsilon amino group of lysine side chains. For the five integrins, α5β1, αVβ1, αVβ3, αVβ5, and αVβ6 (R&D System; Minneapolis, MN, USA), a solution at 1.8 µg/mL was prepared with integrin-binding buffer (IBB; 20 mM Tris pH 7.4, 150 mM NaCl, 2 mM CaCl2, 1 mM MgCl2, 1 mM MnCl2). Nunc Maxisorp Module plates were coated overnight at 4 °C with integrin complex at 1.8 µg/mL. After the wells were washed with sample buffer (IBB, 0.5% BSA), blocking solution (IBB, 2% BSA) was added, and the microplate was incubated for 2 h at room temperature. The wells were then washed three times with IBB/0.5% BSA. Then, ^125ISIB-echistatin was diluted in sample buffer to fixed concentrations of 4, 4, 8, 8, and 20 nM for α5β1, αVβ1, αVβ3, αVβ5, and αVβ6 competition studies, respectively. The ^125ISIB-echistatin was mixed with sample buffer at a ratio of 1:1 (total binding = control well) or with increasing concentrations of ligands (Supplementary information SI1) [complete VTN, VTN(381–397 a.a.), VTN(365–381 a.a.)] at a ratio 1:1 and added to wells in duplicate. We used 1,4,7-triazacyclononane-1,4,7-triacetic acid (NOTA) as a negative control. […] After rinsing, bound radioactivity was quantified using a gamma counter. The percentage of relative binding of radiolabeled echistatin was calculated as follows: radioactivity in the test well*100/radioactivity in the reference well. […] For comparison of the potency of ligands in inhibiting bound ^125ISIB-echistatin for different integrin complexes, the half-maximal inhibitory concentration (IC50) was calculated. The IC50 value was determined by constructing a dose–response curve and examining the effect of different concentrations of ligands on ^125ISIB-echistatin binding. […]
To determine if VTN(381–397 a.a.) could interact with integrins, we investigated its ability to compete with radiolabeled echistatin for binding to five different integrin complexes: α5β1, αVβ1, αVβ3, αVβ5 and αVβ6. […] First, the binding affinity of echistatin to the five integrins was measured by determining the equilibrium dissociation constant (KD). […] The fixed concentration of radiolabeled echistatin was determined according to its KD value. For each ligand concentration, the relative binding of ^125ISIB-echistatin to coated integrins was then measured, and values were plotted versus the logarithm of ligand concentration.

integrin αVβ5 = biological target: T2, integrin αVβ5 (Homo sapiens, UniProt P06756+P18084); assay: Competition study, 125ISIB-echistatin vs ligands on coated αVβ5; format: binding; conditions: competition with 8 nM 125ISIB-echistatin, recombinant human αVβ5 coated at 1.8 µg/mL, IBB pH 7.4 / 0.5% BSA, 2 h room temperature, duplicate wells
T2 construct: purchased R&D System; Minneapolis, MN, USA
Experimental: as §3, with “µg/mL.” for “µg/mL. After the wells were washed with sample buffer (IBB, 0.5% BSA), blocking solution (IBB, 2% BSA) was added, and the microplate was incubated for 2 h at room temperature. The wells were then washed three times with IBB/0.5% BSA. Then, ^125ISIB-echistatin was diluted in sample buffer to fixed concentrations of 4, 4, 8, 8, and 20 nM for α5β1, αVβ1, αVβ3, αVβ5, and αVβ6 competition studies, respectively. The ^125ISIB-echistatin was mixed with sample buffer at a ratio of 1:1 (total binding = control well) or with increasing concentrations of ligands (Supplementary information SI1) [complete VTN, VTN(381–397 a.a.), VTN(365–381 a.a.)] at a ratio 1:1 and added to wells in duplicate. We used 1,4,7-triazacyclononane-1,4,7-triacetic acid (NOTA) as a negative control.”

integrin αVβ3 = biological target: T3, integrin αVβ3 (Homo sapiens, UniProt P05106+P06756); assay: Competition study, 125ISIB-echistatin vs ligands on coated αVβ3; format: binding; conditions: competition with 8 nM 125ISIB-echistatin, recombinant human αVβ3 coated at 1.8 µg/mL, IBB pH 7.4 / 0.5% BSA, 2 h room temperature, duplicate wells
T3 construct: purchased R&D System; Minneapolis, MN, USA
Experimental: as §3, with “µg/mL.” for “µg/mL. After the wells were washed with sample buffer (IBB, 0.5% BSA), blocking solution (IBB, 2% BSA) was added, and the microplate was incubated for 2 h at room temperature. The wells were then washed three times with IBB/0.5% BSA. Then, ^125ISIB-echistatin was diluted in sample buffer to fixed concentrations of 4, 4, 8, 8, and 20 nM for α5β1, αVβ1, αVβ3, αVβ5, and αVβ6 competition studies, respectively. The ^125ISIB-echistatin was mixed with sample buffer at a ratio of 1:1 (total binding = control well) or with increasing concentrations of ligands (Supplementary information SI1) [complete VTN, VTN(381–397 a.a.), VTN(365–381 a.a.)] at a ratio 1:1 and added to wells in duplicate. We used 1,4,7-triazacyclononane-1,4,7-triacetic acid (NOTA) as a negative control.”

T1 sequence (P06756 31-992 limits assumed): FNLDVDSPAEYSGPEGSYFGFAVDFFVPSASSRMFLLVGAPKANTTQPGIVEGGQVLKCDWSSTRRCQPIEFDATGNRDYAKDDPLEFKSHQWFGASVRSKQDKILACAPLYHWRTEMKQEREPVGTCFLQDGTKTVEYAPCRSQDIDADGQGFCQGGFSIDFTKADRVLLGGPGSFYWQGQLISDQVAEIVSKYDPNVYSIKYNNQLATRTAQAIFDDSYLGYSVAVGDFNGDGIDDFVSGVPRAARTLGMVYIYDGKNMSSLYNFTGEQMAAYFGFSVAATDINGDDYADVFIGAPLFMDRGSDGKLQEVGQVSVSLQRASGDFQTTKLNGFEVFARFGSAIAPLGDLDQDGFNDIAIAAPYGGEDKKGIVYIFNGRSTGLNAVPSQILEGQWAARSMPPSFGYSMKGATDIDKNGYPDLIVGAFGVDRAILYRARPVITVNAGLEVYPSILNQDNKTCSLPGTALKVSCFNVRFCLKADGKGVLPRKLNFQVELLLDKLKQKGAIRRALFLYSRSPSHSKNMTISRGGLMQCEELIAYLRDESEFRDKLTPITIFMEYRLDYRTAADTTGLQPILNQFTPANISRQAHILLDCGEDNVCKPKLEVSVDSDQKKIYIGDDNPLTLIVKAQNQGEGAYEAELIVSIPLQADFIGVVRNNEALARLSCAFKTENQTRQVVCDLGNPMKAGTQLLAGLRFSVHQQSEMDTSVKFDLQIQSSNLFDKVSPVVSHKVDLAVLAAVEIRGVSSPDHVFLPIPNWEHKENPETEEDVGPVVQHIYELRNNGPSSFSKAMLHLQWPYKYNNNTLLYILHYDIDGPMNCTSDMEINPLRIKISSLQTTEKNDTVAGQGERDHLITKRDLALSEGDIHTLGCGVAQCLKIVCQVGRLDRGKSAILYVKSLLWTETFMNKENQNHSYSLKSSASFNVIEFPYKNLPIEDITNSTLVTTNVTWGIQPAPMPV
T1 sequence (P18564 22-707 limits assumed): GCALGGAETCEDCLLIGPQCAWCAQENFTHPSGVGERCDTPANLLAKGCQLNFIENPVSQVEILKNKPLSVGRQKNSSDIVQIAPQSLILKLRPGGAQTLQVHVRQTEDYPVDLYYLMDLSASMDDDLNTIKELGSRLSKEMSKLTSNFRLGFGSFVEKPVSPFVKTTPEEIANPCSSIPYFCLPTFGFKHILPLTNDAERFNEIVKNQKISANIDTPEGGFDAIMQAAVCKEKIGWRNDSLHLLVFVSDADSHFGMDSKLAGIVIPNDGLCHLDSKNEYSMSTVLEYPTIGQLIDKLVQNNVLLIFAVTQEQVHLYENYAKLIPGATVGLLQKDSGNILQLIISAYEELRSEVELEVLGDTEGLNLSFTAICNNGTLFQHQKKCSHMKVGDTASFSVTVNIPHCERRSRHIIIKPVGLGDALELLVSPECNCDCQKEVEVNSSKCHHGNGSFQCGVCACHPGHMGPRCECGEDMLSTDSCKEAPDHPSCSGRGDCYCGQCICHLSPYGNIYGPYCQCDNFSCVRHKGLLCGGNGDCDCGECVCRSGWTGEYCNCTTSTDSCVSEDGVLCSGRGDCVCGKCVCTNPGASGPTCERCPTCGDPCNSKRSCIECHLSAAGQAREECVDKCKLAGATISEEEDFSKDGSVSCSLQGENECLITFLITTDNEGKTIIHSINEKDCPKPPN
T3 sequence (P06756 31-992 limits assumed): as the sequence (P06756 31-992 limits assumed) above
T3 sequence (P05106 27-718 limits assumed): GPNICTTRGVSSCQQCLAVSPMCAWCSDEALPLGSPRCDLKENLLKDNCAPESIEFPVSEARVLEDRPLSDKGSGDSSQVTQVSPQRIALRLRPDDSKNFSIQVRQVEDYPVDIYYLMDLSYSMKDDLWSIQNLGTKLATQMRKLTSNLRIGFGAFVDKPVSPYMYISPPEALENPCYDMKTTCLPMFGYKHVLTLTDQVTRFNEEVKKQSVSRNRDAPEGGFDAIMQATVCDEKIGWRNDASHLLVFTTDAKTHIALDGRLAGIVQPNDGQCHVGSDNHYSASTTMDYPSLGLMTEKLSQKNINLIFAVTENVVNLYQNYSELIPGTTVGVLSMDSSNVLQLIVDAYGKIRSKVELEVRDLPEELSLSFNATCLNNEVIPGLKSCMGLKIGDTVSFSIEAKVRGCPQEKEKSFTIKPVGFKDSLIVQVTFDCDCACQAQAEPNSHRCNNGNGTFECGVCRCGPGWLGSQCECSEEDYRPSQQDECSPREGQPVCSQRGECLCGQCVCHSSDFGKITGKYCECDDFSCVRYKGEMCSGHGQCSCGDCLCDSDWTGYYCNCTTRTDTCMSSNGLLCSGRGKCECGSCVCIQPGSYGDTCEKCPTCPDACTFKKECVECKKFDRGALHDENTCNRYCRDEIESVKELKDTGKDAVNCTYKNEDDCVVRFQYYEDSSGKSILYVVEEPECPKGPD
T2 sequence (P06756 31-992 limits assumed): as the sequence (P06756 31-992 limits assumed) above
T2 sequence (P18084 24-719 limits assumed): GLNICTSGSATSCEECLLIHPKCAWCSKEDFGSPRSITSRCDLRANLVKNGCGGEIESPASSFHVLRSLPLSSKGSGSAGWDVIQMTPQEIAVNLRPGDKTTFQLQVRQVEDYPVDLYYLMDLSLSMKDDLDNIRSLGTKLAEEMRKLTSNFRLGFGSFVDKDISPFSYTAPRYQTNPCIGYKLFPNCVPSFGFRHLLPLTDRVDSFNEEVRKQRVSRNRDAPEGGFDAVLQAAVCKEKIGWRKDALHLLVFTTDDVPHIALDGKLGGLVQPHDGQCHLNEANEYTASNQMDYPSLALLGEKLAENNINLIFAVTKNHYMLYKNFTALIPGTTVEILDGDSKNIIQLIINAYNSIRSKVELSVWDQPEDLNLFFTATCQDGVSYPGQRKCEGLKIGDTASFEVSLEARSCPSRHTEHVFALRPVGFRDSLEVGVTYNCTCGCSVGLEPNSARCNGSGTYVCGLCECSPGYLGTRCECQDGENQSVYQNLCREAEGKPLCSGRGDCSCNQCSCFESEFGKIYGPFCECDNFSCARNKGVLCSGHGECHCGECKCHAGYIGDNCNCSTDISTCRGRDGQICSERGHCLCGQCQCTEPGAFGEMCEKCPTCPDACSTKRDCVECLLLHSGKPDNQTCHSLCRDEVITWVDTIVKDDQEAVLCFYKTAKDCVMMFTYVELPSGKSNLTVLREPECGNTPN

With `OO` [H2O2] the “effect on αV subunit expression” value [1] was “none of these treatments influenced the expression levels of the αV and β6 integrin subunits” and the “effect on β6 subunit expression” value [2] was “none of these treatments influenced the expression levels of the αV and β6 integrin subunits”.

In the case of `C[C@@H]1C[C@H]2[C@@H]3CCC4=CC(=O)C=C[C@]4(C)[C@@]3(F)[C@@H](O)C[C@]2(C)[C@@]1(O)C(=O)CO` [dexamethasone], the “effect on αV subunit expression” value [1] is reported as “none of these treatments influenced the expression levels of the αV and β6 integrin subunits” and the “effect on β6 subunit expression” value [2] is reported as “none of these treatments influenced the expression levels of the αV and β6 integrin subunits”.

In the case of `CC1=CC(=O)c2ccccc2C1=O` [menadione], the “effect on αV subunit expression” value [1] is reported as “none of these treatments influenced the expression levels of the αV and β6 integrin subunits” and the “effect on β6 subunit expression” value [2] is reported as “none of these treatments influenced the expression levels of the αV and β6 integrin subunits”.

For `C[C@]12C=CC(=O)C=C1CC[C@@H]1[C@@H]2[C@@H](O)C[C@@]2(C)[C@H]1CC[C@]2(O)C(=O)CO` [prednisolone], the “effect on αV subunit expression” value [1] was “none of these treatments influenced the expression levels of the αV and β6 integrin subunits” and the “effect on β6 subunit expression” value [2] was “none of these treatments influenced the expression levels of the αV and β6 integrin subunits”.

With AGE-BSA: advanced glycation end product the “effect on αV subunit expression” value [1] was “none of these treatments influenced the expression levels of the αV and β6 integrin subunits” and the “effect on β6 subunit expression” value [2] was “none of these treatments influenced the expression levels of the αV and β6 integrin subunits”.

IL-1β: proinflammatory cytokine was tested, and the “effect on αV subunit expression” value [1] was “none of these treatments influenced the expression levels of the αV and β6 integrin subunits” and the “effect on β6 subunit expression” value [2] was “none of these treatments influenced the expression levels of the αV and β6 integrin subunits”.

For IL-6: proinflammatory cytokine, the “effect on αV subunit expression” value [1] was “none of these treatments influenced the expression levels of the αV and β6 integrin subunits” and the “effect on β6 subunit expression” value [2] was “none of these treatments influenced the expression levels of the αV and β6 integrin subunits”.

SQRGHSRGRNQNSRRPS [VTN(381–397 a.a.)] showed an IC50 (integrin αVβ6) of 3200 nM.

For TNF-α, the “effect on αV subunit expression” value [1] was “none of these treatments influenced the expression levels of the αV and β6 integrin subunits” and the “effect on β6 subunit expression” value [2] was “none of these treatments influenced the expression levels of the αV and β6 integrin subunits”.

Molecule VTN: whole VTN protein has an IC50 (integrin αVβ6) of 250 nM, an IC50 (integrin αVβ5) of 130 nM and an IC50 (integrin αVβ3) of 1500 nM.

B1: HMGB1: danger-associated molecular pattern (protein, UniProt P09429 1-215, looked up)
High mobility group protein B1: MGKGDPKKPRGKMSSYAFFVQTCREEHKKKHPDASVNFSEFSKKCSERWKTMSAKEKGKFEDMAKADKARYEREMKTYIPPKGETKKKFKDPNAPKRPPSAFFLFCSEYRPKIKGEHPGLSIGDVAKKLGEMWNNTAADDKQPYEKKAAKLKEKYEKDIAAYRAKGKPDAAKKGVVKAEKSKKKKEEEEDEEDEEDEEEEEDEEDEDEEEDDDDE
B1 was tested, and the “effect on αV subunit expression” value [1] was “none of these treatments influenced the expression levels of the αV and β6 integrin subunits” and the “effect on β6 subunit expression” value [2] was “none of these treatments influenced the expression levels of the αV and β6 integrin subunits”.

B2: S100A9: danger-associated molecular pattern (protein, UniProt P06702 1-114, looked up)
Protein S100-A9: MTCKMSQLERNIETIINTFHQYSVKLGHPDTLNQGEFKELVRKDLQNFLKKENKNEKVIEHIMEDLDTNADKQLSFEEFIMLMARLTWASHEKMHEGDEGPGHHHKPGLGEGTP
In the case of B2, the “effect on αV subunit expression” value [1] is reported as “none of these treatments influenced the expression levels of the αV and β6 integrin subunits” and the “effect on β6 subunit expression” value [2] is reported as “none of these treatments influenced the expression levels of the αV and β6 integrin subunits”.
